From PMC9709406 (Frontiers in Pharmacology, 2022)
Where “and” joins values, the source holds several entries; their conditions need not be identical. Equal entries are not always repeated.

What was measured:
[1] = tested on: KYSE70 cells; assay: MTT assay, KYSE70; assay type: cell-based, human; settings: for IC50: Homo sapiens, KYSE-70, MTT, 48 h, KYSE70, n = 5
Description: (§1) The human cancer cells (H1650, H1975, KYSE70, KYSE410 and KYSE450) were purchased from the Type Culture Collection of the Chinese Academy of Sciences (Shanghai, China). The human immortalized normal esophageal epithelial cell line SHEE was donated by Dr. Enmin Li from the Laboratory of Tumor Pathology (Shantou University Medical College, Shantou, Guangdong, China). Drug-resistant cells (H1650TR, H1975OR, KYSE70TR, KYSE410TR and KYSE450TR) were induced by China-US (Henan) Hormel Cancer Institute. The cellswere cultured in RPMI-1640 complete growth medium containing 100 U/mL penicillin-streptomycin and 10% FBS. Based on the above medium formula, 100 nm/L paclitaxel was added in taxol-resistant cells, 100 nm/L gefitinib was added in gefitinib-resistant cells. The cells were incubated at 37 °C in an atmosphere containing 5% of CO2. The compounds were dissolved in DMSO to make a 50 mM stock solution and were diluted to the concentration of working solutions with complete growth medium before administration.
(§2) Cells were seeded in 96-well plates with 2,200–2,500 cells/well in100 μL. One day after seeding, test compounds with the concentration between 0 and 50 μM were added with 0.1% DMSO as control. Five multiple wells for each concentration. After 48 h, MTT was added and incubated in the plate for 1–4 h in the incubator. The absorbance at 490 nm was measured using a microplate reader (Thermo).

[2] = tested on: H1975 cells; assay: MTT assay for cell proliferation and cytotoxicity, H1975; assay type: cell-based, human; settings: Homo sapiens, NCI-H1975, 48 h, MTT, 48 h, H1975, n = 5; read-out: IC50 48 h H1975
Description: as §1
Cells were seeded in 96-well plates with 2,200–2,500 cells/well in100 μL. One day after seeding, test compounds with the concentration between 0 and 50 μM were added with 0.1% DMSO as control. Five multiple wells for each concentration. […] The absorbance at 490 nm was measured using a microplate reader (Thermo).

[3] = tested on: KYSE450 cells; assay: MTT assay, KYSE450; assay type: cell-based, human; settings: for IC50: Homo sapiens, KYSE-450, MTT, 48 h, KYSE450, n = 5, read-out: IC50 48 h KYSE450; for absorbance 490 nm, single well / mean absorbance 490 nm (row G) / mean absorbance 490 nm minus background (row H): KYSE450
Description: as §1, §2

[4] = tested on: SHEE cells; assay: MTT assay, normal esophageal epithelial cell line SHEE; assay type: cell-based; settings: Homo sapiens, 48 h, n = 5
Description: as §1, §2

[5] = tested on: KYSE410 cells; assay: MTT assay, KYSE410; assay type: cell-based, human; settings: for IC50: Homo sapiens, KYSE-410, MTT, 48 h, KYSE410, n = 5, read-out: IC50 48 h KYSE410
Description: as §1, §2

[6] = tested on: H1650 cells; assay: MTT assay for cell proliferation and cytotoxicity, H1650; assay type: cell-based; settings: Homo sapiens, NCI-H1650, 48 h, H1650, n = 5
Description: as §1, §2

[7] = concentration 12.5 (unit not given)
[8] = concentration 25 (unit not given)
[9] = concentration 50 (unit not given)
[10] = concentration 100 (unit not given)

Brc1cccc(Cn2cc(-c3cccc(Nc4ncnc5cc6c(cc45)OCCOCCOCCO6)c3)nn2)c1 [compound 3q]
IC50 [1]: 20.7 ± 1.73 µM
IC50 [2]: 47.3 ± 2.13 µM
melting point: 113 to 116 °C
IC50 [3]: 21.8 ± 1.12 µM
IC50 [4]: > 50 µM
IC50 [5]: > 50 µM
IC50 [6]: 21.5 ± 1.87 µM

c1ccc(Cn2cc(-c3cccc(Nc4ncnc5cc6c(cc45)OCCOCCOCCO6)c3)nn2)cc1 [compound 3r]
IC50 [1]: 7.32 ± 0.62 µM
blank-corrected absorbance 490 nm relative to control (fraction) ([1]; KYSE70, concentration 12.5): 0.2722
inhibition (1 minus fraction of control) ([1]; KYSE70, concentration 12.5): 0.7278
blank-corrected absorbance 490 nm relative to control (fraction) ([1]; KYSE70, concentration 25): 0.1457
inhibition (1 minus fraction of control) ([1]; KYSE70, concentration 25): 0.8543
blank-corrected absorbance 490 nm relative to control (fraction) ([1]; KYSE70, concentration 50): 0.1803
inhibition (1 minus fraction of control) ([1]; KYSE70, concentration 50): 0.8197
blank-corrected absorbance 490 nm relative to control (fraction) ([1]; KYSE70, concentration 100): 0.1267
inhibition (1 minus fraction of control) ([1]; KYSE70, concentration 100): 0.8733
IC50 [2]: 19.2 ± 1.59 µM
melting point: 146 to 149 °C
IC50 [3]: 28.1 ± 1.18 µM
absorbance 490 nm, single well [3, 7]: 0.6476 and 0.598 and 0.6398 and 0.6662
mean absorbance 490 nm (row G) [3, 7]: 0.6379
mean absorbance 490 nm minus background (row H) [3, 7]: 0.586
absorbance 490 nm, single well [3, 8]: 0.4195 and 0.4416 and 0.4375 and 0.4182
mean absorbance 490 nm (row G) [3, 8]: 0.4292
mean absorbance 490 nm minus background (row H) [3, 8]: 0.3773
absorbance 490 nm, single well [3, 9]: 0.1593 and 0.152 and 0.1434
mean absorbance 490 nm (row G) [3, 9]: 0.1516
mean absorbance 490 nm minus background (row H) [3, 9]: 0.09971
absorbance 490 nm, single well [3, 10]: 0.127 and 0.1396 and 0.1367
mean absorbance 490 nm (row G) [3, 10]: 0.1344
mean absorbance 490 nm minus background (row H) [3, 10]: 0.08257
IC50 [4]: 21 ± 1.11 µM
IC50 [5]: 9.23 ± 0.97 µM
blank-corrected absorbance 490 nm relative to control (fraction) ([5]; KYSE410, concentration 12.5): 0.3227
inhibition (1 minus fraction of control) ([5]; KYSE410, concentration 12.5): 0.6773
blank-corrected absorbance 490 nm relative to control (fraction) ([5]; KYSE410, concentration 25): 0.3216
inhibition (1 minus fraction of control) ([5]; KYSE410, concentration 25): 0.6784
blank-corrected absorbance 490 nm relative to control (fraction) ([5]; KYSE410, concentration 50): 0.3502
inhibition (1 minus fraction of control) ([5]; KYSE410, concentration 50): 0.6498
blank-corrected absorbance 490 nm relative to control (fraction) ([5]; KYSE410, concentration 100): 0.1592
inhibition (1 minus fraction of control) ([5]; KYSE410, concentration 100): 0.8408
IC50 [6]: 19.6 ± 1.72 µM

Brc1ccccc1Cn1cc(-c2cccc(Nc3ncnc4cc5c(cc34)OCCOCCOCCO5)c2)nn1 [compound 3s]
IC50 [1]: 9.35 ± 0.89 µM
IC50 [2]: > 50 µM
melting point: 161 to 164 °C
IC50 [3]: 23.4 ± 1.13 µM
IC50 [4]: 14.2 ± 0.94 µM
IC50 [5]: 19.2 ± 1.22 µM
IC50 [6]: 17.1 ± 1.64 µM
